Key:
[1] = system: TrxR (SH-SY5Y cell lysate); experiment: Colorimetric detection of cell lysate TrxR activity (DTNB); type: biochemical, human; conditions: positive control, 20 µM, DTNB absorbance over 20 min
Source text: We further analyzed the potential of adamantane–sclareol hybrids to inhibit TrxR enzyme activity using a colorimetric assay for the detection of TrxR activity in cell lysates. This kinetic assay is based on the ability of TrxR to reduce its substrate 5,5ʹ-dithiobis(2-nitrobenzoic acid) (DTNB) to the yellow product 5-thio-2-nitrobenzoic acid (TNB) in the presence of NADPH. The absorbance of the produced TNB is considered equivalent to the enzymic activity of TrxR. In the kinetic assay, the absorbance of DTNB was measured over 20 min, resulting in a curve showing the dependence of absorbance on time.
TrxR enzyme activity in cell lysate was determined by the reduction of the TrxR substrate DTNB to the yellow product TNB in the presence of NADPH (Acros Organics, Thermo Fisher Scientific, Waltham, MA, USA). Lysate from human neuroblastoma SH-SY5Y cells was used for the TrxR assay. SH-SY5Y cells were grown to 80% confluence, washed twice with PBS, and detached using Hanks-based enzyme-free dissociation solution (Millipore, Billeri-ca, MA, USA). Collected cells were centrifuged at 2000 rpm for 3 min and rinsed in PBS buffer. After additional centrifugation, cells were lysed on ice using Lysis Buffer (50 mM Tris, 150 mM NaCl, 1 mM EDTA, 1% NP40, 0.1% SDS, 0.5% Na-deoxycholate, pH 7.8) containing protease inhibitor mix G (SERVA Electrophoresis GmbH, Heidelberg, Germany) and phosphatase inhibitor cocktail 3 (Sigma-Aldrich, Darmstadt, Germany). The cell lysates were centrifuged at 16,000× g for 15 min at 4 °C. The protein concentrations of the supernatants were determined using a Pierce^TM BCA protein assay kit (Thermo Fisher Scientific, Waltham, MA, USA). The reactions were run in 96-well plates, in a final volume of 100 μL, in 50 mM potassium phosphate buffer (pH 7.0) containing 50 μg of cell lysate proteins, 1 mM EDTA, 50 mM KCl, 0.2 mg/mL BSA, and 0.25 mM NADPH. […] Enzyme kinetics were monitored on an automated microplate reader (MultiskanSky, Thermo Fisher Scientific, Waltham, MA, USA) by measuring the increase in absorbance at 412 nm for 20 min. […]

[2] = system: H2O2 and peroxynitrite anion levels in U87-TxR cells; experiment: ROS detection by DHR, U87-TxR; type: cell-based, human; conditions: 10 µM
Method: The levels of ROS were measured in U87 and U87-TxR cells by flow cytometry. The production of superoxide anions was detected using DHE fluorescence dye, while production of H2O2 and peroxynitrite anions was detected using DHR fluorescence dye. Cells were seeded in 6-well plates (150,000 cell/well) and incubated overnight. The cells were then treated with compounds 2 or 5 (4 μM) for 24 h and 48 h. CDDP (10 μM) was used as a positive control. After the treatment period, the cells were stained with DHE or DHR for 30 min in the dark. Following incubation, cells were harvested with trypsinization and washed twice in cold phosphate buffer solution (PBS). Fluorescence was measured on a CytoFlex flow cytometer (Beckman Coulter, Indianapolis, IN, USA). Green fluorescence from the oxidized DHR dye was detected at 525 nm, while the red fluorescence from ethidium derived from DHE was detected at 585 nm. At least 10,000 events were assayed for each sample. The results were analyzed by CytExpert 2.4.0.28 software (Beckman Coulter, Indianapolis, IN, USA).

U87 cells = experiment: MTT cell viability assay, U87; type: cell-based; conditions: Homo sapiens, U-87 MG, 72 h treatment
Method: (§1) Cell viability was measured using the colorimetric MTT assay based on the reduction of MTT into formazan dye. Cell lines were seeded into 96-well cell culture plates (4000 cells/well) in appropriate medium. After overnight incubation, cells were treated with increasing concentrations of 1, 2, 3, 4, 5, and 6 (0.5, 1, 2, 4, and 8 µM). After 72 h treatment, MTT solution (4 mg/mL) was added and plates were incubated at 37 °C with 5% CO2 for 3 h. After incubation, formazan crystals were dissolved using 100 µL DMSO, resulting in a purple color. The absorbance was measured at 570 nm with a reference wavelength of 690 nm using an automated microplate reader (MultiskanSky, Thermo Scientific, USA). The IC50 values were determined by non-linear regression analysis in GraphPad Prism 8.0.2. software (GraphPad Software, Boston, MA, USA).

U87-TxR cells [3] = experiment: MTT cell viability assay, U87-TxR; type: cell-based, human; conditions: for IC50: Homo sapiens, U87-TxR, 72 h treatment, MTT, MDR cell line; for Relative Resistance Factor: ratio of IC50 values U87-TxR / U87
Method: as §1

SVG p12 cells = experiment: MTT cell viability assay, SVG p12; type: cell-based, human; conditions: for IC50: Homo sapiens, SVGp12, 72 h treatment, MTT, normal glial cell line; for Selectivity Index: IC50 SVG p12 vs average IC50 in A-172, U87 and U87-TxR
Method: as §1

U87-TxR cells [4] = experiment: Cell death detection, AV/PI staining, U87-TxR; type: cell-based, human; conditions: 48 h; for cell death effect in MDR U87-TxR cells vs sensitive U87 cells: 4 µM, AV/PI; for percentage of early apoptotic cells vs untreated: 2 µM and 4 µM, particularly at 4 µM
Method: To evaluate the extent of cell death upon treatment with adamantane–sclareol hybrids, apoptotic, necrotic, and viable cell populations were assessed using dual staining with AV/PI. U87 and U87-TxR cells were seeded in 6-well plates at a density of 150,000 cells per well and incubated overnight. Subsequently, cells were treated with 2 and 5 (2 µM and 4 µM) for 48 h. At the end of the treatment period, cells were collected (both adherent and floating), washed, and incubated with AV/PI in binding buffer. Samples were analyzed using a CytoFLEX flow cytometer (Beckman Coulter, Indianapolis, IN, USA), with fluorescence signals detected at 525 nm (AV) and 585 nm (PI). At least 10,000 events were recorded per each condition. The percentages of viable (AV^− PI^−), early apoptotic (AV^+ PI^−), late apoptotic (AV^+ PI^+), and necrotic (AV^− PI^+) cells were calculated using CytExpert 2.4.0.28 software (Beckman Coulter, Indianapolis, IN, USA).

A-172 cells = experiment: MTT cell viability assay, A-172; type: cell-based; conditions: Homo sapiens, 72 h treatment
Method: as §1

U87-TxR cells [5] = experiment: Combination with PTX, MTT assay; type: cell-based, human; conditions: Homo sapiens, U87-TxR; PTX alone, 72 h
Method: as §1
The combined effects of 2 and 5 with PTX were studied in U87-TxR cells by MTT assay as previously described. In simultaneous treatments that lasted 72 h, three concentrations of 2 and 5 (0.5, 1, and 2 µM) were combined with three concentrations of PTX (0.1 μM, 0.2 μM, and 0.5 μM). Drug combination effects were evaluated using the Chou–Talalay method, which calculates the combination index (CI) value for the degree of interaction between the drugs. This method allows quantitative assessment of synergism (CI < 1), additivity (CI close to 1), or antagonism (CI > 1) across a range of dose–effect relationships. Calcusyn® version 1.1 software was used for data analysis (Biosoft, Cambridge UK). Three data points were used for each single drug in each designed experiment. The non-constant ratio combination was chosen to assess the effect of both drugs in combination. The results are presented in a fraction-affected CI graph.

[6] = system: mitochondrial membrane potential in U87 and U87-TxR cells; experiment: TMRE mitochondrial membrane potential; type: cell-based, human; conditions: 10 µM, added 30 min before staining
Method: The cell-permeable fluorescent dye TMRE was used to evaluate mitochondrial membrane potential. TMRE selectively accumulates in active mitochondria with intact membrane potential. […] U87 and U87-TxR cells were seeded in 6-well plates at a density of 150,000 cells per well. After 24 h, cells were treated with 2 and 5 (4 µM) and incubated for an additional 24 h. After treatment, cells were trypsinized, resuspended in complete medium containing 500 nM TMRE, and incubated for 30 min at 37 °C in the dark. CCCP (10 µM) was used as a positive control for mitochondrial depolarization and added 30 min before staining. For each sample, at least 10,000 events were collected. TMRE was detected at […]. The results were calculated using CytExpert 2.4.0.28 software (Beckman Coulter, Indianapolis, IN, USA).

| IC50 (U87 cells) | IC50 (U87-TxR cells [3]) | Compound | Relative Resistance Factor (U87-TxR cells [3]) | IC50 (SVG p12 cells) | Selectivity Index (SVG p12 cells) | cell death effect in MDR U87-TxR cells vs sensitive U87 cells (U87-TxR cells [4]) | IC50 (A-172 cells) | other results |
| --- | --- | --- | --- | --- | --- | --- | --- | --- |
| – | – | O=C(O)CC([S-])C(=O)O.[Au+] (stereo not drawn) [ATM, aurothiomalate, reference compound] | – | – | – | – | – | TrxR enzyme activity [1]: inhibited TrxR activity |
| – | – | [NH2][Pt]([NH2])([Cl])[Cl] [CDDP, Cisplatin, reference compound] | – | – | – | – | – | positive control effect on ROS, U87-TxR vs U87 [2]: more potent effects in MDR U87-TxR cells |
| 2400 ± 61 nM | 2080 ± 37 nM | CC1(C)CCC[C@]2(C)[C@@H](CC[C@@](C)(O)/C=C/c3ccc(CNCCCCCCNCC45CC6CC(CC(C6)C4)C5)s3)[C@](C)(O)CC[C@@H]12 [Compound 1] | 0.869 | 5330 ± 132 nM | 2.300 ^S | significantly better effects in MDR U87-TxR cells | 2470 ± 36 nM | – |
| 2200 ± 52 nM | 2310 ± 52 nM | CC1(C)CCC[C@]2(C)[C@@H](CC[C@@](C)(O)/C=C/c3ccc(CNCCCCCCNCCC45CC6CC(CC(C6)C4)C5)s3)[C@](C)(O)CC[C@@H]12 [Compound 3] | 1.049 | 9290 ± 169 nM | 3.541 ^S | significantly better effects in MDR U87-TxR cells | 3360 ± 57 nM | percentage of early apoptotic cells vs untreated (U87-TxR cells [4]): significant increase |
| 1250 ± 36 nM | 1460 ± 27 nM | CC1(C)CCC[C@]2(C)[C@@H](CC[C@@](C)(O)/C=C/c3ccc(CNCCCCCCNCC45CC6CC(CC(C6)C4)C5)o3)[C@](C)(O)CC[C@@H]12 [Compound 4] | 1.160 | 918 ± 22 nM | 0.686 | significantly better effects in MDR U87-TxR cells | 1380 ± 18 nM | percentage of early apoptotic cells vs untreated (U87-TxR cells [4]): significant increase; early apoptotic population (AV+ PI−) (U87-TxR cells [4]; untreated cells 4.17%, Figure S3): 26.84% |
| 2470 ± 66 nM | 1910 ± 46 nM | CC1(C)CCC[C@]2(C)[C@@H](CC[C@@](C)(O)/C=C/c3ccc(CNCCCCCCNCCC45CC6CC(CC(C6)C4)C5)o3)[C@](C)(O)CC[C@@H]12 [Compound 6] | – | 1160 ± 27 nM | 0.547 | – | 2000 ± 26 nM | – |
| – | – | CC(=O)O[C@H]1C(=O)[C@@]2(C)[C@H]([C@H](OC(=O)c3ccccc3)[C@]3(O)C[C@H](OC(=O)[C@H](O)[C@@H](NC(=O)c4ccccc4)c4ccccc4)C(C)=C1C3(C)C)[C@]1(OC(C)=O)CO[C@@H]1C[C@@H]2O [PTX, paclitaxel, reference compound] | – | – | – | – | – | IC50 (U87-TxR cells [5]): 688 ± 22 nM |
| – | – | Carbonyl cyanide m-chlorophenyl hydrazine [CCCP, reference compound] | – | – | – | – | – | positive control effect on mitochondrial membrane potential, U87-TxR vs U87 [6]: more potent effects in MDR U87-TxR cells |
